Test results: patent publication US20250134907A1, “FUSED DIAZEPINES AS AGONISTS OF THE INSULIN-LIKE 3 (INSL3) PEPTIDE RECEPTOR RXFP2 AND METHODS OF USE THEREOF” (The United States of America,as represented by the …, priority 2022, published 2025)

Molecular target: T1, RXFP2 (Homo sapiens, UniProt Q8WXD0)
T1 construct: expressed in transfected cells
Experiment: HTRF cAMP assay in HEK293T cells stably expressing RXFP2 (HEK-RXFP2)
Assay type: cell-based
Settings: for % EFF vs. 1 nM INSL3 (b): normalized to 1 nM INSL3 cAMP response; for % EFF vs. 100 nM INSL3 (c): normalized to 100 nM INSL3 cAMP response
Description: Compound efficacy and EC50 were determined by measuring cAMP induction in vitro. HEK293T cells stably expressing RXFP2 (HEK-RXFP2) produce cAMP when RXFP2 is activated, which can be measured in an antibody-based immunoassay utilizing a fluorescent readout (cAMP Gs HiRange Kit, PerkinElmer, Waltham, MA). HEK-RXFP2 cells were seeded in 96-well plates in serum-free DMEM and incubated overnight at 37° C., 5% CO2. Plates were then treated with a compound titration up to 25 μM or INSL3 control, in the presence of isobutylmethylxanthine phosphodiesterase inhibitor (IBMX) at 200 μM to amplify the cAMP signal, for 1 hour at 37° C., 5% CO2 before being processed as per kit instructions. Table 7 lists the efficacy and EC50 of compounds tested under different experimental conditions. […] In condition (a), 20,000 cells were seeded per well in the 96 well plate, and efficacy was determined by normalizing the maximum compound cAMP response to the 1 nM INSL3 cAMP response (% Efficacy 1 nM INSL3 (a)). In condition (b), 10,000 cells were seeded per well, and compound response was normalized to the 1 nM INSL3 cAMP response (% Efficacy 1 nM INSL3 (b)). In condition (c), 7,500 cells were seeded per well, compound response was normalized to the 100 nM INSL3 cAMP response, and IBMX was omitted (% Efficacy 100 nM INSL3 (c)). A range is given when compounds were tested multiple times. Where compounds were tested under multiple experimental conditions, the EC50 listed for the corresponding condition is marked (a) through (c) to correlate. When EC50 could not be calculated from the dose-response curve, EC50 is listed as not determined (ND).

[1] = condition (b): 10,000 cells/well, IBMX 200 μM
[2] = condition (c): 7,500 cells/well, IBMX omitted

T1 sequence (Q8WXD0 whole entry): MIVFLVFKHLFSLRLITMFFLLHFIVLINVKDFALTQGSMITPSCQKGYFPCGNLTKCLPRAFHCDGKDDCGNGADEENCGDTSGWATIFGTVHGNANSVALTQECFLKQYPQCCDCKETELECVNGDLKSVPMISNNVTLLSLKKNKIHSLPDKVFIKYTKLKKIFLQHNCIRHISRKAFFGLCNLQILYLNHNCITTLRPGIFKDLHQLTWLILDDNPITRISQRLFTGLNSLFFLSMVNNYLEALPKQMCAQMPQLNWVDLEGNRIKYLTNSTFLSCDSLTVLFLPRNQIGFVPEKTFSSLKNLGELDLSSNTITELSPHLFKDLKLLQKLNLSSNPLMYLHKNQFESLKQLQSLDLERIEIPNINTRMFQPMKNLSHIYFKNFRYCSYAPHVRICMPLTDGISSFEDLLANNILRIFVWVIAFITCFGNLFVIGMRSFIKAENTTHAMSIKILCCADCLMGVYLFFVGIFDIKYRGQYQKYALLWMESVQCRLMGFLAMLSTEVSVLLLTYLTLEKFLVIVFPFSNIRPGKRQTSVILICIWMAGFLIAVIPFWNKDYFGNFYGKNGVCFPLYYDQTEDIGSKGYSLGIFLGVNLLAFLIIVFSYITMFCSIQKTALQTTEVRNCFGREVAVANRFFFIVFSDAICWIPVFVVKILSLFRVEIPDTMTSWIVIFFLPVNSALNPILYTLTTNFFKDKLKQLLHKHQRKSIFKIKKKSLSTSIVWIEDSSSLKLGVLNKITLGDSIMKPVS

| % EFF vs. 1 nM INSL3 (b) [1] [%] | % EFF vs. 100 nM INSL3 (c) [2] [%] | EC50 [2] [nM] | Structure (SMILES) | also measured |
| --- | --- | --- | --- | --- |
| 113.26 |  |  | Cc1cc(OC(F)F)ccc1OCC(=O)N1CCN2C(=O)c3cc(-c4cc(C(F)(F)F)cc(C(F)(F)F)c4)ccc3NC(=O)[C@@H]2C1 [Example 167, (S)-2-(2-(4-(difluoromethoxy)-2-methylphenoxy)acetyl)-8-(3-(trifluoromethyl)-5-(trifluoromethyl)phenyl)-1,3,4,12a-tetrahydrobenzo[e]pyrazino[1,2-a][1,4]diazepine-6,12 (2H, 11H)-dione] | EC50 [1]: 142 nM |
| 131.20 |  |  | Cc1cc(-c2ccc3c(c2)C(=O)N2CCN(C(=O)COc4ccc(OC(F)F)cc4C)C[C@H]2C(=O)N3)cc(C(F)(F)F)c1 [Example 168, (S)-2-(2-(4-(Difluoromethoxy)-2-methylphenoxy)acetyl)-8-(3-methyl-5-(trifluoromethyl)phenyl)-1,3,4,12a-tetrahydrobenzo[e]pyrazino[1,2-a][1,4]diazepine-6,12 (2H, 11H)-dione] |  |
| 70.66 |  |  | Cc1cc(OC(F)F)ccc1OCC(=O)N1CCN2C(=O)c3cc(-c4cc(O)cc(C(F)(F)F)c4)ccc3NC(=O)[C@@H]2C1 [Example 172] |  |
| 114.71 |  |  | O=C1Nc2ccc(-c3cc(O)cc(C(F)(F)F)c3)cc2C(=O)N2CCN(C(=O)COc3ccc(OC(F)(F)F)cc3Br)C[C@@H]12 [Example 173, (S)-2-(2-(2-Bromo-4-(trifluoromethoxy)phenoxy)acetyl)-8-(3-hydroxy-5-(trifluoromethyl)phenyl)-1,3,4,12a-tetrahydrobenzo[e]pyrazino[1,2-a][1,4]diazepine-6,12 (2H, 11H)-dione] | EC50 [1]: 64.2 nM |
|  | 17.49 |  | Cc1cc(OC(F)F)ccc1OCC(=O)N1CCN2C(=O)c3cc(-c4cccc(C(F)F)c4)ccc3NC(=O)[C@@H]2C1 [Example 177, (S)-2-(2-(4-(difluoromethoxy)-2-methylphenoxy)acetyl)-8-(3-(difluoromethyl)phenyl)-1,3,4,12a-tetrahydrobenzo[e]pyrazino[1,2-a][1,4]diazepine-6,12 (2H, 11H)-dione] |  |
|  | 52.68 |  | O=C1Nc2ccc(-c3cccc(C(F)F)c3)cc2C(=O)N2CCN(C(=O)COc3ccc(OC(F)(F)F)cc3Br)C[C@@H]12 [Example 178, (S)-2-(2-(2-Bromo-4-(trifluoromethoxy)phenoxy)acetyl)-8-(3-(difluoromethyl)phenyl)-1,3,4,12a-tetrahydrobenzo[e]pyrazino[1,2-a][1,4]diazepine-6,12 (2H, 11H)-dione] |  |
|  | 28.25 |  | O=C1Nc2ccc(-c3cccc(C(F)F)c3)cc2C(=O)N2CCN(C(=O)COc3ccc(OC(F)(F)F)cc3Cl)C[C@@H]12 [Example 179, (S)-2-(2-(2-chloro-4-(trifluoromethoxy)phenoxy)acetyl)-8-(3-(difluoromethyl)phenyl)-1,3,4,12a-tetrahydrobenzo[e]pyrazino[1,2-a][1,4]diazepine-6,12 (2H, 11H)-dione] |  |
|  | 23.13 |  | Cc1cc(OC(F)(F)F)ccc1OCC(=O)N1CCN2C(=O)c3cc(-c4cccc(C(F)F)c4)ccc3NC(=O)[C@@H]2C1 [Example 180, (S)-8-(3-(difluoromethyl)phenyl)-2-(2-(2-methyl-4-(trifluoromethoxy)phenoxy)acetyl)-1,3,4,12a-tetrahydrobenzo[e]pyrazino[1,2-a][1,4]diazepine-6,12 (2H, 11H)-dione] |  |
|  | 63.16 | 452 | COc1cc(OC(F)(F)F)ccc1OCC(=O)N1CCN2C(=O)c3cc(-c4cc(C(F)(F)F)cc(C(F)(F)F)c4)ccc3NC(=O)[C@@H]2C1 [Example 185, (S)-8-(3,5-bis(trifluoromethyl)phenyl)-2-(2-(2-methoxy-4-(trifluoromethoxy)phenoxy)acetyl)-1,3,4,12a-tetrahydrobenzo[e]pyrazino[1,2-a][1,4]diazepine-6,12 (2H, 11H)-dione] |  |
|  | 66.75 | 189 | O=C1Nc2ccc(-c3cc(C4CC4)cc(C(F)(F)F)c3)cc2C(=O)N2CCN(C(=O)COc3ccc(OC(F)(F)F)cc3Br)C[C@@H]12 [Example 191, (S)-2-(2-(2-bromo-4-(trifluoromethoxy)phenoxy)acetyl)-8-(3-cyclopropyl-5-(trifluoromethyl)phenyl)-1,3,4,12a-tetrahydrobenzo[e]pyrazino[1,2-a][1,4]diazepine-6,12 (2H, 11H)-dione] |  |
|  | 77.31 | 77.8 | O=C1Nc2ccc(-c3cc(C4CC4)cc(C(F)(F)F)c3)cc2C(=O)N2CCN(C(=O)COc3ccc(OC(F)(F)F)cc3I)C[C@@H]12 [Example 192, (S)-8-(3-cyclopropyl-5-(trifluoromethyl)phenyl)-2-(2-(2-iodo-4-(trifluoromethoxy)phenoxy)acetyl)-1,3,4,12a-tetrahydrobenzo[e]pyrazino[1,2-a][1,4]diazepine-6,12 (2H, 11H)-dione] |  |
|  |  |  | O=C1Nc2ccc(-c3cccc(C(F)(F)F)c3)cc2C(=O)N2CCN(CCOc3ccccc3)CC12 (centres unmarked) [Example 231, 2-(2-phenoxyethyl)-8-(3-(trifluoromethyl)phenyl)-1,3,4,12a-tetrahydrobenzo[e]pyrazino[1,2-a][1,4]diazepine-6,12 (2H, 11H)-dione] | % EFF vs. 1 nM INSL3 (a) (condition (a): 20,000 cells/well, IBMX 200 μM, maximum cAMP response normalized to 1 nM INSL3 response): 0.04% |
|  | 49.35 | 8610 | O=C1Nc2ccc(-c3cc(C(F)(F)F)cc(C(F)(F)F)c3)cc2CN2CCN(C(=O)COc3ccc(OC(F)(F)F)cc3I)C[C@@H]12 [Example 254, (S)-8-(3,5-bis(trifluoromethyl)phenyl)-2-(2-(2-iodo-4-(trifluoromethoxy)phenoxy)acetyl)-1,3,4,6,11,12a-hexahydrobenzo[e]pyrazino[1,2-a][1,4]diazepin-12 (2H)-one] |  |
| 59.15 |  |  | O=C1Nc2ccc(-c3cccc(C(F)(F)F)c3)cc2C(=O)N2CCN(C(=O)COc3ccc(C(F)(F)F)cc3Cl)C[C@@H]12 [Example 255, (S)-2-(2-(2-chloro-4-(trifluoromethyl)phenoxy)acetyl)-8-(3-(trifluoromethyl)phenyl)-1,3,4,12a-tetrahydrobenzo[e]pyrazino[1,2-a][1,4]diazepine-6,12 (2H, 11H)-dione] | EC50 [1]: 9.7 nM |
|  | 67.97 | 62.1 | O=C1Nc2ccc(-c3cc(O)cc(C(F)(F)F)c3F)cc2C(=O)N2CCN(C(=O)COc3ccc(OC(F)(F)F)cc3Br)C[C@@H]12 [Example 259, (S)-2-(2-(2-bromo-4-(trifluoromethoxy)phenoxy)acetyl)-8-(2-fluoro-5-hydroxy-3-(trifluoromethyl)phenyl)-1,3,4,12a-tetrahydrobenzo[e]pyrazino[1,2-a][1,4]diazepine-6,12 (2H, 11H)-dione] |  |
